Values of other authors in patent US9808427B2, “Swallowable N-acetylcysteine tablets” (ZAMBON S.P.A., priority 2013, dated 2017).

How the values were obtained:
[1] = 1200 mg per day (2 tablets of 600 mg)

time to achieve pharmacologically active concentrations in pulmonary tissue and bronchial secretions (after taking the drug): approximately 3 hours | elimination of NAC and its metabolites (in vivo): essentially via the kidneys | absorption in the gastrointestinal tract (oral administration, man): quickly and completely absorbed
SMILES: CC(=O)N[C@@H](CS)C(=O)O [NAC, N-acetylcysteine]
efficacy and safety in long-term treatment of COPD [1]: effective and safe
